pIC50: −log10 of the molar value. Where two headings read alike, the source gives them in different places.

Data on five compounds can be found in patent publication US9833465B2 (priority 2013, dated 2017).

Holding throughout (assay type): cell-based, human
The subject of one test is HCT-116 colon carcinoma. Description: cells. The note with it: HCT116 colon cancer cells, 3-6 days, crystal violet, triplicate. The method, then:
Compounds were tested in HTC 116 cell line, which is an art-recognized isogenic human disease model predictive of activity in human patients. They were tested according to the following standard protocol:
(§1) Antiproliferative assay: The cytotoxicities of arimetamycins A (1), B (2) and C (3) were evaluated using four human cancer cell lines: HCT-116 colon carcinoma (ATCC; CCL-247) [M. G. Brattain, W. D. Fine, F. M. Khaled, J. Thompson, D. E. Brattain, Cancer Res 1981, 41, 1751-1756], WiDr colorectal adenocarcinoma (ATCC; CCL-218) [P. Noguchi, R. Wallace, J. Johnson, E. M. Earley, S. O'Brien, S. Ferrone, M. A. Pellegrino, J. Milstien, C. Needy, W. Browne, J. Petricciani, In vitro 1979, 15, 401-408], MDR-MB-231 breast adenocarcinoma (ATCC; HTB-26) [B. R. Brinkley, P. T. Beall, L. J. Wible, M. L. Mace, D. S. Turner, R. M. Cailleau, Cancer Res 1980, 40, 3118-3129] and H69AR multidrug resistant lung carcinoma (ATCC; CRL-11351) [S. E. Mirski, J. H. Gerlach, S. P. Cole, Cancer Res 1987, 47, 2594-2598] cell lines. HCT-116 and H69AR cells were grown in McCoy's 5A Modified Medium (Gibco) supplemented with 10% (v/v) FBS and RPMI-1640 (ATCC) supplemented with 20% (v/v) FBS, respectively. WiDr and MDA-MB-231 cells were grown in DMEM Medium (Gibco) supplemented with 10% (v/v) FBS. All the cell lines were incubated at 37° C. with 5% CO2. Cells in log phase growth were harvested by trypsinization. Cells were seeded into 96-well plates (HCT-116: 1,000 cells/well, WiDr: 3,000 cells/well, MDA-MB-231: 8,000 cells/well, H69AR: 25,000 cells/well) and incubated overnight at 37° C. with 5% CO2. Compounds 1-3 (in DMSO) were sequentially diluted (3-fold starting at 50 μg/mL) across a 96-well plate and 100 μL was transferred to the appropriate wells in the assay plates. Doxorubicin (Sigma-Aldrich) and daunorubicin (Sigma-Aldrich) were used as positive controls and DMSO was used as a negative control. The plates were incubated at 37° C. for 3-6 days depending on the growth rate and then evaluated for viability using either an MTT (3-(4,5-Dimethylthiazol-2-yl)-2,5-diphenyltetrazolium bromide) (MDR-MB-231 and H69AR) or crystal violet (HCT-116 and WiDr) based colorimetric assay [R. Supino, Methods in molecular biology 1995, 43, 137-149; bD. Zivadinovic, B. Gametchu, C. S. Watson, Breast Cancer Res 2005, 7, R101-112]. Cell viability is recorded based on the percent stain present in each well relative to no drug DMSO control wells. Assays were run in triplicate.

For test [1], the system named is representative colon, lung and breast cancer cell lines. Description: Anticancer activity against colon, lung and breast cancer cell lines (summary over the panel). Particulars: for anticancer activity (in words): colon, lung (MDR) and breast cancer cell lines. The method, then: Arimetamycins A-C (1-3) were evaluated for anticancer activity against representative colon, lung and breast cancer cell lines as described below. The lung cancer line (H69AR) is multidrug resistant (MDR), showing high-level resistance to anthracyclines (50-fold) as well as many other anticancer agents including vincristine, etoposide and mitoxantrone. […] P-glycoprotein expression-dependent MDR is the most clinically significant resistance mechanism affecting the utility of anthracyclines. Compounds of the genus described herein are the first anthracyclines from Streptomyces culture that appear effective against MDR cancers.
as §1

The subject of test [2] is H69AR multidrug resistant lung carcinoma. Description: cells. Particulars: multidrug resistant lung cancer cells, 3-6 days, MTT, triplicate, read-out: IC50 H69AR Lung/MDR. As to the method: as §1
Test [3] has as its system MDA-MB-231 breast adenocarcinoma. The experiment in a line: cells. Particulars: breast cancer cells, 3-6 days, MTT, triplicate, read-out: IC50 MDSMB231 Breast. As to the method:
as §1

The test system of test [4] is WiDr colorectal adenocarcinoma. Description: cells. The note with it: WiDr colon cancer cells, 3-6 days, crystal violet, triplicate. The method, then:
as §1

Turning to `COc1cc(O)c2c(c1)C(=O)c1cc3c(c(O)c1C2=O)[C@@H](O[C@H]1C[C@](C)(N(C)C)[C@H](O[C@H]2C[C@](C)(O)[C@H](N(C)C)[C@H](C)O2)[C@H](C)O1)[C@H](OC)[C@](C)(O)C3=O` [Arimetamycin A(1), arimetamycin A], the pIC50 in the test on HCT-116 colon carcinoma is 8.60; in test [2], 7.17; in test [3] it was 6.79; in test [4], 9.30. Further, the “IC50 against all cell lines (in words)” value in test [1] (all cell lines including the H69AR MDR cell line) was “nanomolar”. In addition, the “anticancer activity (in words)” value in test [1] was “highly active against both MDR and drug sensitive cell lines”. Further, the “IC50 fold lower than doxorubicin or daunorubicin” value in test [1] (compared with either doxorubicin or daunorubicin) was 2-10 fold.

With `COc1cc(O)c2c(c1)C(=O)c1cc3c(c(O)c1C2=O)[C@@H](O[C@H]1C[C@H](O)[C@@H](O)[C@H](C)O1)[C@H](OC)[C@](C)(O)C3=O` [Arimetamycin B(2), arimetamycin B], the pIC50 with HCT-116 colon carcinoma was 5.74; in test [2] it was 4.33; in test [3], 4.53; in test [4], 5.12. Also, the “anticancer activity (in words)” value in test [1] is on record as “moderate activity”.

Regarding `COc1cc(O)c2c(c1)C(=O)c1cc3c(c(O)c1C2=O)[C@@H](O[C@H]1C[C@H](OC)[C@@H](O)[C@H](C)O1)[C@H](OC)[C@](C)(O)C3=O` [Arimetamycin C(3), arimetamycin C], the pIC50 in the test with HCT-116 colon carcinoma was 5.85; in test [2], 4.73; in test [3], 4.56; in test [4] it was 5.28. Also, the “anticancer activity (in words)” value in test [1] is recorded as “moderate activity”.

Turning to `COc1cccc2c1C(=O)c1c(O)c3c(c(O)c1C2=O)C[C@@](O)(C(C)=O)C[C@@H]3O[C@H]1C[C@H](N)[C@H](O)[C@H](C)O1` [Daunorubicin, daunorubicin, reference compound], the pIC50 is 8.17 with HCT-116 colon carcinoma, 5.32 in test [2], 6.48 in test [3] and 8.26 in test [4].

As for `COc1cccc2c1C(=O)c1c(O)c3c(c(O)c1C2=O)C[C@@](O)(C(=O)CO)C[C@@H]3O[C@H]1C[C@H](N)[C@H](O)[C@H](C)O1` [Doxorubicin, doxorubicin, reference compound], the pIC50 in the test with HCT-116 colon carcinoma (Homo sapiens, HCT-116) was 7.65; in test [2] (Homo sapiens, H69AR), 4.74; in test [3] (Homo sapiens, MDA-MB-231), 6.01; in test [4] (Homo sapiens) it was 7.51.
